Laboratory results reported in patent publication US12263226B1, “Neratinib-cyclodextrin composition and method for preparing same” (Hangzhou Jitai Pharmaceutical Technology Co., Ltd, priority 2024, dated 2025).
Where two headings read alike, the source gives them in different places.

Legend:
[1] = cited from earlier work
[2] = Description: Preparation of FaSSIF solution (fasted state simulated intestinal fluid, pH 6.5): 0.42 g of NaOH, 3.44 g of NaH2PO4, and 6.19 g of NaCl were added into a beaker before 900 mL of purified water was added. The pH was adjusted and the volume was brought to 1 L with purified water. 2.24 g of FaSSIF powder was added into the 1-L buffer.
Solubility measurement: 400 μL of the FaSSIF solution was added into a scintillation flask, and a small amount of the neratinib-cyclodextrin composition powder was gradually added at room temperature with magnetic stirring until a precipitate was observed. The addition amount of the powder was recorded. The solubility of neratinib maleate was calculated from the loading amount of the powder. Dissolution measurement of the neratinib maleate substance (API): 400 μL of the FaSSIF solution was added into a scintillation flask. An excessive amount of neratinib maleate substance was added.

Compound	bioavailability ([1]; fasting conditions in humans) [%]	decrease of area under curve (AUC) without the high-fat meal ([1]; humans, approved tablet) [times]	solubility of neratinib maleate ([2]; FaSSIF, excess substance, stirred at room temperature 48 h, supernatant by HPLC) [µg/mL]	solubility of neratinib maleate ([2]; neutral conditions (pH 6.5)) [µg/mL]
CCOc1cc2ncc(C#N)c(Nc3ccc(OCc4ccccn4)c(Cl)c3)c2cc1NC(=O)/C=C/CN(C)C [neratinib, (E)-N-[4-[3-chloro-4-(pyridin-2-ylmethoxy)anilino]-3-cyano-7-ethoxyquinolin-6-yl]-4-(dimethylamino) but-2-enamide]	< 17	2.2	–	–
neratinib maleate	–	–	7.4	7.4
